#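 These data come from cells grown in 96-well plates and exposed to compound for 48 hours at five concentrations. Here, GI50 denotes the concentration required for 50% inhibition of growth. TGI: concentration producing complete growth inhibition.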
# Legend:
# Experiment in all cases: DTP human tumour cell line panel, 48 h
# SK-OV-3 ovarian = tested on: SK-OV-3 ovarian
# A498 renal = tested on: A498 renal
# CAKI-1 renal = tested on: CAKI-1 renal
# SW-620 colon = tested on: SW-620 colon
# M14 melanoma = tested on: M14 melanoma
# HCC-2998 colon = tested on: HCC-2998 colon
# UACC-257 melanoma = tested on: UACC-257 melanoma
# OVCAR-3 ovarian = tested on: OVCAR-3 ovarian
# SF-295 CNS = tested on: SF-295 CNS
# RXF 393 renal = tested on: RXF 393 renal
# SK-MEL-2 melanoma = tested on: SK-MEL-2 melanoma
# DU-145 prostate = tested on: DU-145 prostate
# MDA-MB-231 breast = tested on: MDA-MB-231 breast
# UACC-62 melanoma = tested on: UACC-62 melanoma
# NCI-H460 lung = tested on: NCI-H460 lung
# OVCAR-5 ovarian = tested on: OVCAR-5 ovarian
# K-562 leukemia = tested on: K-562 leukemia
# HT29 colon = tested on: HT29 colon
# RPMI-8226 leukemia = tested on: RPMI-8226 leukemia
# SR leukemia = tested on: SR leukemia
# NCI-H226 lung = tested on: NCI-H226 lung
# MALME-3M melanoma = tested on: MALME-3M melanoma
# SK-MEL-28 melanoma = tested on: SK-MEL-28 melanoma
# A549 NSCLC = tested on: A549 NSCLC
# LOX IMVI melanoma = tested on: LOX IMVI melanoma
# HS 578T breast = tested on: HS 578T breast
# HOP-62 NSCLC = tested on: HOP-62 NSCLC
# U251 CNS = tested on: U251 CNS
# OVCAR-4 ovarian = tested on: OVCAR-4 ovarian
structure (smiles),measurement,setting,value
O=C1Nc2cc(Cl)ccc2/C1=C/c1cccc(OCc2ccccc2)c1,GI50,SK-OV-3 ovarian,13.1 µM
same,TGI,SK-OV-3 ovarian,31.6 µM
same,GI50,A498 renal,13.7 µM
same,TGI,A498 renal,27.9 µM
same,GI50,CAKI-1 renal,2.77 µM
same,TGI,CAKI-1 renal,16.4 µM
same,GI50,SW-620 colon,3.59 µM
same,TGI,SW-620 colon,14.5 µM
same,GI50,M14 melanoma,3.19 µM
same,TGI,M14 melanoma,15.5 µM
same,GI50,HCC-2998 colon,11.9 µM
same,TGI,HCC-2998 colon,25.3 µM
same,GI50,UACC-257 melanoma,6.18 µM
same,TGI,UACC-257 melanoma,21.2 µM
same,GI50,OVCAR-3 ovarian,2.89 µM
same,TGI,OVCAR-3 ovarian,9.48 µM
same,GI50,SF-295 CNS,5.18 µM
same,TGI,SF-295 CNS,21 µM
same,GI50,RXF 393 renal,10.8 µM
same,TGI,RXF 393 renal,24.4 µM
same,GI50,SK-MEL-2 melanoma,3.68 µM
same,TGI,SK-MEL-2 melanoma,15 µM
same,GI50,DU-145 prostate,10.9 µM
same,TGI,DU-145 prostate,42.1 µM
same,GI50,MDA-MB-231 breast,4.76 µM
same,TGI,MDA-MB-231 breast,18.6 µM
same,GI50,UACC-62 melanoma,2.41 µM
same,TGI,UACC-62 melanoma,10.1 µM
same,GI50,NCI-H460 lung,3.24 µM
same,TGI,NCI-H460 lung,11.5 µM
same,GI50,OVCAR-5 ovarian,11.8 µM
same,TGI,OVCAR-5 ovarian,24.4 µM
same,GI50,K-562 leukemia,2.13 µM
same,TGI,K-562 leukemia,10.2 µM
same,GI50,HT29 colon,5.92 µM
same,TGI,HT29 colon,20.3 µM
same,GI50,RPMI-8226 leukemia,2.13 µM
same,TGI,RPMI-8226 leukemia,11.7 µM
same,GI50,SR leukemia,2.1 µM
same,TGI,SR leukemia,5.86 µM
same,GI50,NCI-H226 lung,6.43 µM
same,TGI,NCI-H226 lung,22.2 µM
same,GI50,MALME-3M melanoma,4.3 µM
same,TGI,MALME-3M melanoma,16.7 µM
same,GI50,SK-MEL-28 melanoma,5.3 µM
same,TGI,SK-MEL-28 melanoma,17.9 µM
same,GI50,A549 NSCLC,10 µM
same,TGI,A549 NSCLC,24.9 µM
same,GI50,LOX IMVI melanoma,2.75 µM
same,TGI,LOX IMVI melanoma,11.4 µM
same,GI50,HS 578T breast,3.46 µM
same,TGI,HS 578T breast,22.8 µM
same,GI50,HOP-62 NSCLC,9.61 µM
same,TGI,HOP-62 NSCLC,29.1 µM
same,GI50,U251 CNS,3.5 µM
same,TGI,U251 CNS,13.7 µM
same,GI50,OVCAR-4 ovarian,3.7 µM
same,TGI,OVCAR-4 ovarian,19.1 µM
